Measurements: the supplement of paper PMC11061612

Columns and labels:
[1] = compound: C=CCn1c(=O)c2cnc(Nc3ccc(N4CCN(C)CC4)cc3)nc2n1-c1cccc(C(C)(C)O)n1 [AZD1775]; details: max 3 µM
How it was run: (§1)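 Cancer cell lines were seeded in 1536-well plates in 7.5 μl DMEM/F12 or RPMI with 10% FBS, held 24 hours at 37°C and 5% CO2, then dosed for 72 hours (final DMSO typically 0.2%). Viability was read by CellTiter-Glo 2.0 luminescence and scaled between blank-well and DMSO-well means. The single-agent IC50 comes from dose responses fitted to a two-parameter logistic curve with a non-linear mixed effects model.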

[2] = compound: Cn1cnc2c(F)c(Nc3ccc(Br)cc3Cl)c(C(=O)NOCCO)cc21 [Selumetinib]; details: max 10 µM
How it was run: as §1

[3] = compound: C[C@@H](Nc1cc(F)cc(F)c1)c1cc(C(=O)N(C)C)cc2c(=O)cc(N3CCOCC3)oc12 [AZD8186]; details: max 3 µM
How it was run: as §1

[4] = compound: C[C@@H]1COCCN1C2=NC(=NC(=C2)C3(CC3)[S@](=N)(=O)C)C4=C5C=CNC5=NC=C4 [AZD6738]; details: max 10 µM
How it was run: as §1

[5] = compound: CN(C)CCCOc1ccc(-c2ccc3ncc4c(c3c2)n(C2CCOCC2)c(=O)n4C)cn1 [AZD0156]; details: max 3 µM
How it was run: as §1

[6] = compound: Cc1cc2ncnn2cc1Nc1ncc2c(n1)n(C1CCOCC1)c(=O)n2C [AZD7648]; details: max 10 µM
How it was run: as §1

[7] = compound: CCc1c2c(nc3ccc(O)cc13)-c1cc3c(c(=O)n1C2)COC(=O)[C@]3(O)CC [SN-38]; details: max 0.3 µM
How it was run: as §1

[8] = compound: CC1(C)CCC(CN2CCN(c3ccc(C(=O)NS(=O)(=O)c4ccc(NCC5CCOCC5)c([N+](=O)[O-])c4)c(Oc4cnc5[nH]ccc5c4)c3)CC2)=C(c2ccc(Cl)cc2)C1 [Venetoclax]; details: max 1 µM
How it was run: as §1

[9] = compound: CC1=CN2[C@@H](C1)C=NC3=CC(=C(C=C3C2=O)OC)OCCCCCOC4=C(C=C5C(=C4)N=C[C@@H]6CC(=CN6C5=O)C)OC [SG3199]; details: max 0.001 µM
How it was run: as §1

[10] = compound: C1CN(CCC1(C(=O)N[C@@H](CCO)C2=CC=C(C=C2)Cl)N)C3=NC=NC4=C3C=CN4 [Capivasertib]; details: max 10 µM
How it was run: as §1

[11] = compound: CC1=C(C(=CC=C1)Cl)NC(=O)C2=CN=C(S2)NC3=CC(=NC(=N3)C)N4CCN(CC4)CCO [Dasatinib]; details: max 2 µM
How it was run: as §1

[12] = compound: COc1nnc2ccc(N3CCC(c4ccc(OCCN5CCN(C)C(=O)[C@H]5C)cc4)CC3)nn12 [AZD5153]; details: max 1 µM
How it was run: as §1

[13] = compound: COc1cccc2c1C(=O)c1c(O)c3c(c(O)c1C2=O)C[C@@](O)(C(=O)CO)C[C@@H]3O[C@H]1C[C@H](N)[C@H](O)[C@H](C)O1 [Doxorubicin]; details: max 1 µM
How it was run: as §1

[14] = compound: Cc1c2c(nn1C)CSCc1cc(n(C)n1)CSc1cc(c3ccccc3c1)OCCCc1c(C(=O)O)n(C)c3c-2c(Cl)ccc13 [AZD5991]; details: max 1 µM
How it was run: as §1

[15] = compound: CC(=O)Nc1cccc(-n2c(=O)n(C3CC3)c(=O)c3c(Nc4ccc(I)cc4F)n(C)c(=O)c(C)c32)c1 [Trametinib]; details: max 1 µM
How it was run: as §1

[16] = compound: COc1cc2ncnc(Nc3ccc(F)c(Cl)c3)c2cc1OCCCN1CCOCC1 [Gefitinib]; details: max 10 µM
How it was run: as §1

[17] = compound: COc1cc(Nc2ncc3c(n2)-c2ccc(Cl)cc2C(c2c(F)cccc2OC)=NC3)ccc1C(=O)O [Alisertib]; details: max 10 µM
How it was run: as §1

[18] = compound: CC(=O)c1c(C)c2cnc(Nc3ccc(N4CCNCC4)cn3)nc2n(C2CCCC2)c1=O [Palbociclib]; details: max 10 µM
How it was run: as §1

[19] = compound: CN(CC[C@H](CSC1=CC=CC=C1)NC2=C(C=C(C=C2)S(=O)(=O)NC(=O)C3=CC=C(C=C3)N4CCC(CC4)[C@H](C5=CC=CC=C5C6=CC=C(C=C6)Cl)O)S(=O)(=O)C(F)(F)F)CCO [AZD4320]; details: max 1 µM
How it was run: as §1

[20] = compound: CCN(CCO)CCCOc1ccc2c(Nc3cc(CC(=O)Nc4cccc(F)c4)[nH]n3)ncnc2c1 [AZD2811]; details: max 1 µM
How it was run: as §1

[21] = compound: C[C@@H](c1ccc2nccn2c1)n1nnc2ncc(-c3cnn(C)c3)nc21 [Savolitinib]; details: max 1 µM
How it was run: as §1

[22] = compound: COc1cccc(OCCCN)c1-c1cc(Nc2cnc(C#N)cn2)n[nH]1 [Prexasertib]; details: max 1 µM
How it was run: as §1

[23] = compound: O=C(c1cc(Cc2n[nH]c(=O)c3ccccc23)ccc1F)N1CCN(C(=O)C2CC2)CC1 [Olaparib]; details: max 10 µM
How it was run: as §1

[24] = compound: Cc1nc(-c2cn3c(n2)-c2ccc(-c4cnn(C(C)(C)C(N)=O)c4)cc2OCC3)n(C(C)C)n1 [Taselisib]; details: max 10 µM
How it was run: as §1

[25] = compound: CS(=O)(=O)CCNCc1ccc(-c2ccc3ncnc(Nc4ccc(OCc5cccc(F)c5)c(Cl)c4)c3c2)o1 [Lapatinib]; details: max 10 µM
How it was run: as §1

[26] = compound: CC(C)n1c(=O)n(C)c2cnc3cc(F)c(-c4ccc(OCCCN5CCCCC5)nc4)cc3c21 [AZD1390]; details: max 0.3 µM
How it was run: as §1

[27] = compound: C[C@@H](Oc1cc(-c2cnn(C3CCNCC3)c2)cnc1N)c1c(Cl)ccc(F)c1Cl [Crizotinib]; details: max 10 µM
How it was run: as §1

| Cell Line | IC50, cell viability 72 h [1] | IC50, cell viability 72 h [2] | IC50, cell viability 72 h [3] | IC50, cell viability 72 h [4] | IC50, cell viability 72 h [5] | IC50, cell viability 72 h [6] | IC50, cell viability 72 h [7] | IC50, cell viability 72 h [8] | IC50, cell viability 72 h [9] | IC50, cell viability 72 h [10] | IC50, cell viability 72 h [11] | IC50, cell viability 72 h [12] | IC50, cell viability 72 h [13] | IC50, cell viability 72 h [14] | IC50, cell viability 72 h [15] | IC50, cell viability 72 h [16] | IC50, cell viability 72 h [17] | IC50, cell viability 72 h [18] | IC50, cell viability 72 h [19] | IC50, cell viability 72 h [20] | IC50, cell viability 72 h [21] | IC50, cell viability 72 h [22] | IC50, cell viability 72 h [23] | IC50, cell viability 72 h [24] | IC50, cell viability 72 h [25] | IC50, cell viability 72 h [26] | IC50, cell viability 72 h [27] |
| --- | --- | --- | --- | --- | --- | --- | --- | --- | --- | --- | --- | --- | --- | --- | --- | --- | --- | --- | --- | --- | --- | --- | --- | --- | --- | --- | --- |
| AM-38 (Glioblastoma) | 2.61 µM | 3.75 µM | > 3 µM | 4.8 µM | > 3 µM | > 10 µM | 0.0227 µM | > 1 µM | > 0.001 µM | > 10 µM | > 2 µM | > 1 µM | 0.694 µM | > 1 µM | 0.0717 µM | > 10 µM | > 10 µM | > 10 µM | > 1 µM | > 1 µM | > 1 µM | 0.126 µM | > 10 µM | > 10 µM | > 10 µM | > 0.3 µM | > 10 µM |
| BHT-101 (Thyroid Gland Carcinoma) | > 3 µM | 1.36 µM | > 3 µM | 9.26 µM | > 3 µM | > 10 µM | 0.0309 µM | > 1 µM | > 0.001 µM | > 10 µM | 1.1 µM | 0.0601 µM | > 1 µM | > 1 µM | 0.0182 µM | > 10 µM | 1.85 µM | 9.12 µM | > 1 µM | > 1 µM | > 1 µM | 0.293 µM | > 10 µM | 6.45 µM | > 10 µM | > 0.3 µM | 8.67 µM |
| CL-11 (Colorectal Carcinoma) | 0.859 µM | 1.06 µM | > 3 µM | 3.04 µM | > 3 µM | > 10 µM | 0.0579 µM | > 1 µM | > 0.001 µM | > 10 µM | > 2 µM | 0.224 µM | > 1 µM | > 1 µM | 0.0335 µM | > 10 µM | 0.527 µM | > 10 µM | > 1 µM | > 1 µM | > 1 µM | 0.0903 µM | > 10 µM | > 10 µM | > 10 µM | > 0.3 µM | > 10 µM |
| DBTRG-05MG (Glioblastoma) | > 3 µM | > 10 µM | > 3 µM | > 10 µM | > 3 µM | > 10 µM | > 0.3 µM | > 1 µM | > 0.001 µM | > 10 µM | > 2 µM | > 1 µM | > 1 µM | > 1 µM | > 1 µM | > 10 µM | > 10 µM | > 10 µM | > 1 µM | > 1 µM | > 1 µM | > 1 µM | > 10 µM | > 10 µM | > 10 µM | > 0.3 µM | > 10 µM |
| HT-1080 (Other Solid Carcinomas) | > 3 µM | > 10 µM | > 3 µM | > 10 µM | > 3 µM | > 10 µM | > 0.3 µM | > 1 µM | > 0.001 µM | > 10 µM | > 2 µM | > 1 µM | > 1 µM | > 1 µM | > 1 µM | > 10 µM | > 10 µM | > 10 µM | 0.721 µM | > 1 µM | > 1 µM | 0.536 µM | > 10 µM | > 10 µM | > 10 µM | > 0.3 µM | > 10 µM |
| MM1S (Plasma Cell Myeloma) | 0.72 µM | > 10 µM | > 3 µM | 9.52 µM | 1.69 µM | > 10 µM | 0.0101 µM | > 1 µM | > 0.001 µM | 0.545 µM | > 2 µM | 0.347 µM | 0.459 µM | 0.325 µM | > 1 µM | > 10 µM | > 10 µM | > 10 µM | 0.153 µM | > 1 µM | > 1 µM | 0.0301 µM | > 10 µM | 0.207 µM | > 10 µM | > 0.3 µM | 6.08 µM |
| MOLP-8 (Plasma Cell Myeloma) | 0.465 µM | > 10 µM | > 3 µM | 3.83 µM | 1.74 µM | > 10 µM | 0.0484 µM | > 1 µM | > 0.001 µM | 8.91 µM | > 2 µM | 0.0495 µM | 0.407 µM | 0.0485 µM | > 1 µM | > 10 µM | 5.24 µM | > 10 µM | > 1 µM | > 1 µM | > 1 µM | 0.0245 µM | > 10 µM | 0.439 µM | > 10 µM | > 0.3 µM | 2.65 µM |
| MOLT-13 (T-Lymphoblastic Leukemia) | 0.44 µM | 5.27 µM | > 3 µM | 2.37 µM | > 3 µM | > 10 µM | 0.00385 µM | 0.416 µM | > 0.001 µM | > 10 µM | > 2 µM | 0.0357 µM | 0.467 µM | 0.0528 µM | 0.459 µM | > 10 µM | 0.177 µM | 5.57 µM | 0.0338 µM | 0.0427 µM | > 1 µM | 0.0165 µM | > 10 µM | > 10 µM | 5.86 µM | > 0.3 µM | 4.26 µM |
